Source: patent publication US4808703A, “Novel 3-(4'-aminobutylamino) propylaminobleomycin derivatives” (Zaidan Hojin Biseibutsu Kagaku Kenku Kai, priority 1983, dated 1989)

What was measured:
ICR mice = assay: Pulmonary toxicity (fibrosis of the lung) in mice; conditions: for Incidence: Number of mice with pulmonary fibrosis/Number of mice in the treatment group / Incidence (%) of pulmonary fibrosis / Grade: Total score for pulmonary fibrosis/Total specimens / Grade of pulmonary fibrosis (total score divided by total number of specimens): 5 mg/kg i.p. once daily for 10 days; for Incidence: Number of mice with pulmonary fibrosis/Number of mice in the treatment group / Incidence (%) of pulmonary fibrosis: autopsy after 5 weeks of observation; for Incidence: Number of mice with pulmonary fibrosis/Number of mice in the treatment group: count; for Incidence (%) of pulmonary fibrosis: percentage in parentheses; for Grade: Total score for pulmonary fibrosis/Total specimens / Grade of pulmonary fibrosis (total score divided by total number of specimens): autopsy after 5 weeks, scores 0, 1, 2, 4, 6 points; for Grade: Total score for pulmonary fibrosis/Total specimens: fraction; for Grade of pulmonary fibrosis (total score divided by total number of specimens): value in parentheses; for Grade ratio: grade of the test compound to that of bleomycin complex; for Incidence ratio: incidence of the test compound to that of bleomycin complex
Protocol: ICR mice (male, 15-week-old) were used in groups of 10 each. The dose of each test compound was 5 mg/kg injected intraperitoneally once daily for 10 consecutive days. After the administration of the compound was completed, the animals were reared for 5 weeks for observation. Then, the animals were killed and autopsied so that the incidence and grade of pulmonary fibrosis were examined.
The incidence of pulmonary fibrosis was expressed as the number of mice developing pulmonary fibrosis in the group of mice administered the test compound. The grade of pulmonary fibrosis was expressed as the total score for pulmonary fibrosis divided by the total number of specimens.
1 point: Accumulation of exudate in the alveoli, and fibrosis-like changes seen in the alveolar septum.
2 points: Fibrosis seen at several sites.
4 points: Sporadic fibrosis.
6 points: Extensive fibrosis (fibrosis seen in more than 170 of the total region).
The ratio in the table represents the ratio of the incidence of the test compound to that of bleomycin complex, or the ratio of the grade of the test compound to that of bleomycin complex.

[1] = tested on: Mycobacterium smegmatis ATCC 607; assay: Antibacterial activity by the agar cylinder plate method, Mycobacterium smegmatis ATCC607; assay type: cell-based; conditions: copper-containing compound, standard bleomycin A2 = 1,000 mcg potency/mg
From the text: (§1) (1) Antibacterial activity against Mycobacterium smegmatis ATCC607 and Bacillus subtilis
(§2) The above activity ws determined by the agar cylinder plate method using the above microorganisms.

Bacillus subtilis = assay: Antibacterial activity by the agar cylinder plate method, Bacillus subtilis; assay type: cell-based; conditions: copper-containing compound, standard bleomycin A2 = 1,000 mcg potency/mg
From the text: as §1, §2

`Cc1c(N)nc(C(CC(N)=O)NCC(N)C(N)=O)nc1C(=O)NC(C(=O)NC(C)C(O)C(C)C(=O)NC(C(=O)NCCc1nc(-c2nc(C(=O)NCCCN(CCCCN(Cc3ccccc3)Cc3ccccc3)Cc3ccccc3)cs2)cs1)C(C)O)C(OC1OC(CO)C(O)C(O)C1OC1OC(CO)C(O)C(OC(N)=O)C1O)c1cnc[nH]1` (centres unmarked) [Compound 1, 3-[N-benzyl-N-(4'-dibenzylaminobutyl)amino]propylaminobleomycin] was tested, and the “Incidence: Number of mice with pulmonary fibrosis/Number of mice in the treatment group” value (ICR mice) was 0/10, the “Incidence (%) of pulmonary fibrosis” value (ICR mice) was 0% and the “Grade: Total score for pulmonary fibrosis/Total specimens” value (ICR mice) was 0/30. The “Grade of pulmonary fibrosis (total score divided by total number of specimens)” value (ICR mice) was 0, the Grade ratio (ICR mice) was 0.00 and the Incidence ratio (ICR mice) was 0.00. For the same compound, the “Antibacterial titer of copper-compound” value [1] was 17360 mcg potency/mg and the “Antibacterial titer of copper-compound” value (Bacillus subtilis) was 400 mcg potency/mg.
For `Cc1c(N)nc(C(CC(N)=O)NCC(N)C(N)=O)nc1C(=O)NC(C(=O)NC(C)C(O)C(C)C(=O)NC(C(=O)NCCc1nc(-c2nc(C(=O)NCCCN(CCCCN(Cc3ccc(Cl)cc3)Cc3ccc(Cl)cc3)Cc3ccc(Cl)cc3)cs2)cs1)C(C)O)C(OC1OC(CO)C(O)C(O)C1OC1OC(CO)C(O)C(OC(N)=O)C1O)c1cnc[nH]1` (centres unmarked) [Compound 2, 3-{N--p-chlorobenzyl-N--[4'-bis(p-chlorobenzyl)aminobutyl]amino}propylaminobleomycin], the “Incidence: Number of mice with pulmonary fibrosis/Number of mice in the treatment group” value (ICR mice) was 0/10, the “Incidence (%) of pulmonary fibrosis” value (ICR mice) was 0% and the “Grade: Total score for pulmonary fibrosis/Total specimens” value (ICR mice) was 0/30. For the same compound, the “Grade of pulmonary fibrosis (total score divided by total number of specimens)” value (ICR mice) was 0, the Grade ratio (ICR mice) was 0.00 and the Incidence ratio (ICR mice) was 0.00. For the same compound, the “Antibacterial titer of copper-compound” value [1] was 613 mcg potency/mg and the “Antibacterial titer of copper-compound” value (Bacillus subtilis) was 129 mcg potency/mg.
With `Cc1c(N)nc(C(CC(N)=O)NCC(N)C(N)=O)nc1C(=O)NC(C(=O)NC(C)C(O)C(C)C(=O)NC(C(=O)NCCc1nc(-c2nc(C(=O)NCCCN(CCCCN(Cc3ccc(Cl)c(Cl)c3)Cc3ccc(Cl)c(Cl)c3)Cc3ccc(Cl)c(Cl)c3)cs2)cs1)C(C)O)C(OC1OC(CO)C(O)C(O)C1OC1OC(CO)C(O)C(OC(N)=O)C1O)c1cnc[nH]1` (centres unmarked) [Compound 3, 3-{N--m,p-dichlorobenzyl-N--[4'-bis(m,p-dichlorobenzyl)aminobutyl]amino}propylaminobleomycin] the “Incidence: Number of mice with pulmonary fibrosis/Number of mice in the treatment group” value (ICR mice) was 0/10, the “Incidence (%) of pulmonary fibrosis” value (ICR mice) was 0% and the “Grade: Total score for pulmonary fibrosis/Total specimens” value (ICR mice) was 0/30. The “Grade of pulmonary fibrosis (total score divided by total number of specimens)” value (ICR mice) was 0, the Grade ratio (ICR mice) was 0.00 and the Incidence ratio (ICR mice) was 0.00. The “Antibacterial titer of copper-compound” value [1] was 217 mcg potency/mg and the “Antibacterial titer of copper-compound” value (Bacillus subtilis) was 43 mcg potency/mg.
With `COc1ccc(CN(CCCCN(Cc2ccc(OC)cc2)Cc2ccc(OC)cc2)CCCNC(=O)c2csc(-c3csc(CCNC(=O)C(NC(=O)C(C)C(O)C(C)NC(=O)C(NC(=O)c4nc(C(CC(N)=O)NCC(N)C(N)=O)nc(N)c4C)C(OC4OC(CO)C(O)C(O)C4OC4OC(CO)C(O)C(OC(N)=O)C4O)c4cnc[nH]4)C(C)O)n3)n2)cc1` (centres unmarked) [Compound 4, 3-{N--p-methoxybenzyl-N--[4'-bis(p-methoxybenzyl)aminobutyl]amino}propylaminobleomycin] the “Incidence: Number of mice with pulmonary fibrosis/Number of mice in the treatment group” value (ICR mice) was 0/10, the “Incidence (%) of pulmonary fibrosis” value (ICR mice) was 0% and the “Grade: Total score for pulmonary fibrosis/Total specimens” value (ICR mice) was 0/30. For the same compound, the “Grade of pulmonary fibrosis (total score divided by total number of specimens)” value (ICR mice) was 0, the Grade ratio (ICR mice) was 0.00 and the Incidence ratio (ICR mice) was 0.00. The “Antibacterial titer of copper-compound” value [1] was 11109 mcg potency/mg and the “Antibacterial titer of copper-compound” value (Bacillus subtilis) was 197 mcg potency/mg.
In the case of `Cc1ccc(CN(CCCCN(Cc2ccc(C)cc2)Cc2ccc(C)cc2)CCCNC(=O)c2csc(-c3csc(CCNC(=O)C(NC(=O)C(C)C(O)C(C)NC(=O)C(NC(=O)c4nc(C(CC(N)=O)NCC(N)C(N)=O)nc(N)c4C)C(OC4OC(CO)C(O)C(O)C4OC4OC(CO)C(O)C(OC(N)=O)C4O)c4cnc[nH]4)C(C)O)n3)n2)cc1` (centres unmarked) [Compound 5, 3-{N--p-methylbenzyl-N--[4'-bis(p-methylbenzyl)aminobutyl]amino}propylaminobleomycin], the “Incidence: Number of mice with pulmonary fibrosis/Number of mice in the treatment group” value (ICR mice) is reported as 0/10, the “Incidence (%) of pulmonary fibrosis” value (ICR mice) is reported as 0% and the “Grade: Total score for pulmonary fibrosis/Total specimens” value (ICR mice) is reported as 0/30. The “Grade of pulmonary fibrosis (total score divided by total number of specimens)” value (ICR mice) was 0, the Grade ratio (ICR mice) was 0.00 and the Incidence ratio (ICR mice) was 0.00. The “Antibacterial titer of copper-compound” value [1] was 4560 mcg potency/mg and the “Antibacterial titer of copper-compound” value (Bacillus subtilis) was 203 mcg potency/mg.
`Cc1c(N)nc(C(CC(N)=O)NCC(N)C(N)=O)nc1C(=O)NC(C(=O)NC(C)C(O)C(C)C(=O)NC(C(=O)NCCc1nc(-c2nc(C(=O)NCCCN(CCCCN(CC3CCCCCCC3)CC3CCCCCCC3)CC3CCCCCCC3)cs2)cs1)C(C)O)C(OC1OC(CO)C(O)C(O)C1OC1OC(CO)C(O)C(OC(N)=O)C1O)c1cnc[nH]1` (centres unmarked) [Compound 6, 3-{N--cyclooctylmethyl-N--[4'-bis(cyclooctylmethyl)aminobutyl]amino}propylaminobleomycin] was tested, and the “Incidence: Number of mice with pulmonary fibrosis/Number of mice in the treatment group” value (ICR mice) was 0/10, the “Incidence (%) of pulmonary fibrosis” value (ICR mice) was 0% and the “Grade: Total score for pulmonary fibrosis/Total specimens” value (ICR mice) was 0/30. The “Grade of pulmonary fibrosis (total score divided by total number of specimens)” value (ICR mice) was 0, the Grade ratio (ICR mice) was 0.00 and the Incidence ratio (ICR mice) was 0.00. For the same compound, the “Antibacterial titer of copper-compound” value [1] was 530 mcg potency/mg and the “Antibacterial titer of copper-compound” value (Bacillus subtilis) was 61 mcg potency/mg.
`CCCCCCCCCCN(CCCCCCCCCC)CCCCN(CCCCCCCCCC)CCCNC(=O)c1csc(-c2csc(CCNC(=O)C(NC(=O)C(C)C(O)C(C)NC(=O)C(NC(=O)c3nc(C(CC(N)=O)NCC(N)C(N)=O)nc(N)c3C)C(OC3OC(CO)C(O)C(O)C3OC3OC(CO)C(O)C(OC(N)=O)C3O)c3cnc[nH]3)C(C)O)n2)n1` (centres unmarked) [Compound 8, 3-{N--n-decyl-N--[4'-bis(n-decyl)-aminobutyl]amino}propylaminobleomycin] was tested, and the “Incidence: Number of mice with pulmonary fibrosis/Number of mice in the treatment group” value (ICR mice) was 0/10, the “Incidence (%) of pulmonary fibrosis” value (ICR mice) was 0% and the “Grade: Total score for pulmonary fibrosis/Total specimens” value (ICR mice) was 0/30. The “Grade of pulmonary fibrosis (total score divided by total number of specimens)” value (ICR mice) was 0, the Grade ratio (ICR mice) was 0.00 and the Incidence ratio (ICR mice) was 0.00. The “Antibacterial titer of copper-compound” value [1] was 295 mcg potency/mg and the “Antibacterial titer of copper-compound” value (Bacillus subtilis) was 75 mcg potency/mg.
For `CCCCCN(CCCCC)CCCCN(CCCCC)CCCNC(=O)c1csc(-c2csc(CCNC(=O)C(NC(=O)C(C)C(O)C(C)NC(=O)C(NC(=O)c3nc(C(CC(N)=O)NCC(N)C(N)=O)nc(N)c3C)C(OC3OC(CO)C(O)C(O)C3OC3OC(CO)C(O)C(OC(N)=O)C3O)c3cnc[nH]3)C(C)O)n2)n1` (centres unmarked) [Compound 9, 3-{N--n-pentyl-N--[4'-bis(n-pentyl)aminobutyl]amino}propylaminobleomycin], the “Incidence: Number of mice with pulmonary fibrosis/Number of mice in the treatment group” value (ICR mice) was 0/10, the “Incidence (%) of pulmonary fibrosis” value (ICR mice) was 0% and the “Grade: Total score for pulmonary fibrosis/Total specimens” value (ICR mice) was 0/30. For the same compound, the “Grade of pulmonary fibrosis (total score divided by total number of specimens)” value (ICR mice) was 0, the Grade ratio (ICR mice) was 0.00 and the Incidence ratio (ICR mice) was 0.00. The “Antibacterial titer of copper-compound” value [1] was 57408 mcg potency/mg and the “Antibacterial titer of copper-compound” value (Bacillus subtilis) was 3520 mcg potency/mg.
In the case of `Cc1c(N)nc(C(CC(N)=O)NCC(N)C(N)=O)nc1C(=O)NC(C(=O)NC(C)C(O)C(C)C(=O)NC(C(=O)NCCc1nc(-c2nc(C(=O)NCCCN(CCCCN(Cc3ccc(OCc4ccccc4)c(OCc4ccccc4)c3)Cc3ccc(OCc4ccccc4)c(OCc4ccccc4)c3)Cc3ccc(OCc4ccccc4)c(OCc4ccccc4)c3)cs2)cs1)C(C)O)C(OC1OC(CO)C(O)C(O)C1OC1OC(CO)C(O)C(OC(N)=O)C1O)c1cnc[nH]1` (centres unmarked) [Compound 10, 3-{N-m,p-dibenzyloxybenzyl-N-[4'bis(m,p-dibenzyloxybenzyl)aminobutyl]amino}propylaminobleomycin], the “Incidence: Number of mice with pulmonary fibrosis/Number of mice in the treatment group” value (ICR mice) is reported as 0/10, the “Incidence (%) of pulmonary fibrosis” value (ICR mice) is reported as 0% and the “Grade: Total score for pulmonary fibrosis/Total specimens” value (ICR mice) is reported as 0/30. For the same compound, the “Grade of pulmonary fibrosis (total score divided by total number of specimens)” value (ICR mice) was 0, the Grade ratio (ICR mice) was 0.00 and the Incidence ratio (ICR mice) was 0.00. For the same compound, the “Antibacterial titer of copper-compound” value [1] was 136 mcg potency/mg and the “Antibacterial titer of copper-compound” value (Bacillus subtilis) was 6 mcg potency/mg.
In the case of `Cc1c(N)nc(C(CC(N)=O)NCC(N)C(N)=O)nc1C(=O)NC(C(=O)NC(C)C(O)C(C)C(=O)NC(C(=O)NCCc1nc(-c2nc(C(=O)NCCC[N+](C)(C)CCCCN(Cc3ccccc3)Cc3ccccc3)cs2)cs1)C(C)O)C(OC1OC(CO)C(O)C(O)C1OC1OC(CO)C(O)C(OC(N)=O)C1O)c1cnc[nH]1` (centres unmarked) [Compound 11, 3-[N,N-dimethyl-N-(4'-dibenzyl-aminobutyl)amino]propylaminobleomycin], the “Antibacterial titer of copper-compound” value [1] is reported as 20160 mcg potency/mg and the “Antibacterial titer of copper-compound” value (Bacillus subtilis) is reported as 2528 mcg potency/mg.
For `Cc1c(N)nc(C(CC(N)=O)NCC(N)C(N)=O)nc1C(=O)NC(C(=O)NC(C)C(O)C(C)C(=O)NC(C(=O)NCCc1nc(-c2nc(C(=O)NCCCNCCCCN)cs2)cs1)C(C)O)C(OC1OC(CO)C(O)C(O)C1OC1OC(CO)C(O)C(OC(N)=O)C1O)c1c[nH]cn1` (centres unmarked) [Compound A5, 3-(4'-aminobutylamino)propylaminobleomycin, reference compound], the “Incidence: Number of mice with pulmonary fibrosis/Number of mice in the treatment group” value (ICR mice) was 5/10, the “Incidence (%) of pulmonary fibrosis” value (ICR mice) was 50% and the “Grade: Total score for pulmonary fibrosis/Total specimens” value (ICR mice) was 5/30. It also gave a Grade of pulmonary fibrosis (total score divided by total number of specimens) (ICR mice; the values are: mean fibrosis score per specimen) of 0.17, a Grade ratio (ICR mice) of 0.29 and an Incidence ratio (ICR mice) of 0.71.
